Experimental data reported in paper PMC12394658, “Discovery of Zharp1-163 as a dual inhibitor of ferroptosis and necroptosis for the treatment of inflammatory disorders and kidney injury” (Cell Death Discovery, 2025).

How the values were obtained:
Assay in all cases: biochemical
Design in all cases: Kinase selectivity panel of 81 human kinases, ADP-Glo or HTRF, per cent inhibition at 1 uM
[1] = molecular target: AKT1 (Homo sapiens, UniProt P31749)
Experimental: (§1) We next sought to determine the binding affinity of Zharp1-163 for RIPK1 or RIPK3 via a binding assay (Fig. 4A). […] Further, we evaluated the selectivity of Zharp1-163 against a panel of 81 kinases (at 1000 nM). […] To elucidate the binding interactions between Zharp1-163 and RIPK1 kinase, we conducted molecular docking studies using the RIPK1 crystal structure (PDB ID: 4NEU). The predicted binding conformations and interaction patterns between Zharp1-163 and the RIPK1 kinase domain are presented in Fig. 4D, E. Like the cocrystallized ligand in the 4NEU crystal complex, Zharp1-163 was predicted to act as a typical type II kinase inhibitor, interacting with the DLG (Asp156-Leu157-Gly158)-out conformation of RIPK1 (Fig. 4D, E). The 2-aminoimidazo [1,2-a] pyridine moiety of Zharp1-163 formed hydrogen bonds with Met95 in the hinge region. Furthermore, the carboxylate group of Zharp1-163 established hydrogen bonds with Asp156 in the DLG-out region. Additionally, the saturated ring of Zharp1-163 was deeply embedded within the hydrophobic allosteric pocket formed by the residues Met66, Met67, Leu70, Val76, Leu129, and Leu159, which is created by the DLG-out conformation in RIPK1 (Fig. 4D, E).  Fig. 4 Zharp1-163 is a selective inhibitor of RIPK1 kinase activity. A Binding affinity curve of Zharp1-163 with RIPK1 and RIPK3. B In an in vitro kinase activity assay, recombinant RIPK1 was incubated with Zharp1-163, after which RIPK1 kinase activity was determined by measuring ATP levels via a luciferase reporter assay system. […] Kinases are marked with dots, where the color of each kinase indicates the level of inhibition achieved by Zharp1-163. D Predicted binding conformation of Zharp1-163. E Schematic representation of the interaction patterns between Zharp1-163 and the key residues in the binding pocket of the RIPK1 kinase. […] NIH3T3-RIPK3 cells were pretreated with the indicated concentrations of Zharp1-163 for 2 h and then treated with AP20187 (100 nM) for 24 h. Cell viability was determined by measuring ATP levels. […] HeLa-MLKL (1–190) cells were pretreated with the indicated concentrations of Zharp1-163 for 2 h and subsequently treated with AP20187 (100 nM) for 24 h. Cell viability was determined by measuring ATP levels. H Viability of IFNβ-primed MEFs at 18 h after stimulation with poly(I:C) plus z-VAD and treatment with Zharp1-163 (10 μM). I Effects of different concentrations of Zharp1-163 on WT or RIPK1 KO HT-29 cells. Cell viability was determined by measuring ATP levels. The data are presented as the mean ± SD of triplicate samples.

[2] = molecular target: T1, CHK1 (Homo sapiens, UniProt O14757)
T1 construct: gene CHEK1
Experimental: as §1

[3] = molecular target: FGFR1 (Homo sapiens, UniProt P11362)
FGFR1, sequence (P11362 whole entry): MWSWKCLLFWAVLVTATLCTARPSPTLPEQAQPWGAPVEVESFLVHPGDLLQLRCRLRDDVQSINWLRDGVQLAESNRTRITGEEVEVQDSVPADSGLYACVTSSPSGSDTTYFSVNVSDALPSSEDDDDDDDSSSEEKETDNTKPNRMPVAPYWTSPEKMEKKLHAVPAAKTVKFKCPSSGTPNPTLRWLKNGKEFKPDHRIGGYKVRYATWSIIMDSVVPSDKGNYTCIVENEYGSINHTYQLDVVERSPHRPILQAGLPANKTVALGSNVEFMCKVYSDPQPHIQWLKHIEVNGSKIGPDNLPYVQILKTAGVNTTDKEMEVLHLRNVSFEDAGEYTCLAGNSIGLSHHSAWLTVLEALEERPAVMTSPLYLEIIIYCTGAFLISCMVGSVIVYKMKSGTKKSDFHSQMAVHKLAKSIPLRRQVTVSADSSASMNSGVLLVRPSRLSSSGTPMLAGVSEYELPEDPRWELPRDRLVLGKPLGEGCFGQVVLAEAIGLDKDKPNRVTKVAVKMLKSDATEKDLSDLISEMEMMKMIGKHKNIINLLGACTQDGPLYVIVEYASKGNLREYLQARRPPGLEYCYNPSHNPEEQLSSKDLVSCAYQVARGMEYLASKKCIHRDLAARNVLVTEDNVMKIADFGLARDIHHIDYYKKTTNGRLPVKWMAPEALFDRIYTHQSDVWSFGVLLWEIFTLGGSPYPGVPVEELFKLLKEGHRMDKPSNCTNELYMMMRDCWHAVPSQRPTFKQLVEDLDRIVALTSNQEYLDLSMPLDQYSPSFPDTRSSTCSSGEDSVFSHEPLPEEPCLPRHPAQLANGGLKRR
Experimental: as §1

[4] = molecular target: IGF1R (Homo sapiens, UniProt P08069)
Experimental: as §1

[5] = molecular target: IRAK1 (Homo sapiens, UniProt P51617)
IRAK1, sequence (P51617 whole entry): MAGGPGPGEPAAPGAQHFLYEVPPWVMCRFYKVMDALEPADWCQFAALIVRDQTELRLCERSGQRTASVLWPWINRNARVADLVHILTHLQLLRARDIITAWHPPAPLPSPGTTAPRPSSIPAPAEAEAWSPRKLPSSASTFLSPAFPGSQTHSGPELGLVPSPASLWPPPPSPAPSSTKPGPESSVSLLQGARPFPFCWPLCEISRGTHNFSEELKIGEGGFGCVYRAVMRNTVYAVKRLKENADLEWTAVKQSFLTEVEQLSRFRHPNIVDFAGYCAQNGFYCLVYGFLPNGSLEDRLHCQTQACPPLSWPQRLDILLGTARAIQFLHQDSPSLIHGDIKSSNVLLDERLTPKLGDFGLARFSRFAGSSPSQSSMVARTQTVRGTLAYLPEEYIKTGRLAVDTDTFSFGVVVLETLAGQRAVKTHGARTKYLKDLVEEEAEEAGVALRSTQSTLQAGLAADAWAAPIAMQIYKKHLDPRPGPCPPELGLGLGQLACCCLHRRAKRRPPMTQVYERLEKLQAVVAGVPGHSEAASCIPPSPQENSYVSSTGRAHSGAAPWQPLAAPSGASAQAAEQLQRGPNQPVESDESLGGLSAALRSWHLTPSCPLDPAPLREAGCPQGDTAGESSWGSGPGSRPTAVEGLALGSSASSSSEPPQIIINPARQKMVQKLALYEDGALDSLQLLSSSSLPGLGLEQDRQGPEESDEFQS
Experimental: as §1

[6] = molecular target: ITK (Homo sapiens, UniProt Q08881)
ITK, sequence (Q08881 whole entry): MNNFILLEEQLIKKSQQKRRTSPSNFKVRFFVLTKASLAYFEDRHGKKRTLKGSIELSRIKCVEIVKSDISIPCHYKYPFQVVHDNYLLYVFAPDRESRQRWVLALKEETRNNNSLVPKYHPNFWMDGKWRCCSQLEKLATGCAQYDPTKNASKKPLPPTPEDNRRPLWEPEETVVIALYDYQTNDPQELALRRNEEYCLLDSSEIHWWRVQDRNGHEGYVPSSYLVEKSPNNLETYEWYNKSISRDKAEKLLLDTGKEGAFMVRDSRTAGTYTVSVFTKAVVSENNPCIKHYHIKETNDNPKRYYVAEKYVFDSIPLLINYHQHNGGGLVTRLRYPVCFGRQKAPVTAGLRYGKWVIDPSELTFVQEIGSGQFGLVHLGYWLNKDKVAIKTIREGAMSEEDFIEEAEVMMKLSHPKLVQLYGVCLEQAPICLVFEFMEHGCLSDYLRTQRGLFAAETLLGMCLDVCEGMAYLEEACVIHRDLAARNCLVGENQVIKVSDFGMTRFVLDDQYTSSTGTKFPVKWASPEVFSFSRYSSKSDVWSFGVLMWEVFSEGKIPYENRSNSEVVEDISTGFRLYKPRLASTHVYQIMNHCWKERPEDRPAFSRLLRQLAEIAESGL
Experimental: as §1

[7] = molecular target: T2, JNK1 (Homo sapiens, UniProt P45983)
T2 construct: gene MAPK8
Experimental: as §1

[8] = molecular target: KDR (Homo sapiens, UniProt P35968)
KDR, sequence (P35968 whole entry): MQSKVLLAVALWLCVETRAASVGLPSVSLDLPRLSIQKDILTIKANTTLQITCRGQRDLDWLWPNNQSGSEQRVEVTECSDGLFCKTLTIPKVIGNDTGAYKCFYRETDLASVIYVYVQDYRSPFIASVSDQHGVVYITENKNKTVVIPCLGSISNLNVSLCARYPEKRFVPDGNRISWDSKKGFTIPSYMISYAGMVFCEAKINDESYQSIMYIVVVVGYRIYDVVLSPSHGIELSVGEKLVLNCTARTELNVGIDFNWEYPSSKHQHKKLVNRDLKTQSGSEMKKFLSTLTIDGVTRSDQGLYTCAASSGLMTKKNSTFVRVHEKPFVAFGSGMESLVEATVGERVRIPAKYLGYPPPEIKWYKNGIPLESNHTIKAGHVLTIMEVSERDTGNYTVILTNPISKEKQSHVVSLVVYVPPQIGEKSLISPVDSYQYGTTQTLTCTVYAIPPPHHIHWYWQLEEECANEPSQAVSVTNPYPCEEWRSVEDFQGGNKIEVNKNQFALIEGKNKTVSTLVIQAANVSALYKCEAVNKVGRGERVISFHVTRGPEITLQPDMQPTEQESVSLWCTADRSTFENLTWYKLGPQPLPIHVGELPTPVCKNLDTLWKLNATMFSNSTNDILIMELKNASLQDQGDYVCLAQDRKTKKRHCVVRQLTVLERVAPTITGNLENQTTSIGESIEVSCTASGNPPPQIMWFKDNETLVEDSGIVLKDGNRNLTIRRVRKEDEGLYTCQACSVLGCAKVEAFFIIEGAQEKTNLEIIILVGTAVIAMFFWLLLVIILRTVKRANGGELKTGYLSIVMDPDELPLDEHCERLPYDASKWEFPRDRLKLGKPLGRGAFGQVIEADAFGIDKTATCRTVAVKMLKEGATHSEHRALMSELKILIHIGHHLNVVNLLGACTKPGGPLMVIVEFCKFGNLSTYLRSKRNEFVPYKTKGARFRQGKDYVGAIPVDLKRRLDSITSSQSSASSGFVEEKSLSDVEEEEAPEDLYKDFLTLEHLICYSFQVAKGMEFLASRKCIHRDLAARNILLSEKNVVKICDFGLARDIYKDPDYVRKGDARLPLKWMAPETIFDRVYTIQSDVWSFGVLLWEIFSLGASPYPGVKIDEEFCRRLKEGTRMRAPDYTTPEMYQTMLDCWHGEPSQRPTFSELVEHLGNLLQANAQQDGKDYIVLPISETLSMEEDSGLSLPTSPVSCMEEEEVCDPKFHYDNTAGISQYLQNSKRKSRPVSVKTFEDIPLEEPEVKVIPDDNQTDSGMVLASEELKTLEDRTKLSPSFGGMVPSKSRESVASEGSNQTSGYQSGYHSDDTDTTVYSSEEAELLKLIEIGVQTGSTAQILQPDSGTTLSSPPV
Experimental: as §1

[9] = molecular target: MARK1 (Homo sapiens, UniProt Q9P0L2)
MARK1, sequence (Q9P0L2 whole entry): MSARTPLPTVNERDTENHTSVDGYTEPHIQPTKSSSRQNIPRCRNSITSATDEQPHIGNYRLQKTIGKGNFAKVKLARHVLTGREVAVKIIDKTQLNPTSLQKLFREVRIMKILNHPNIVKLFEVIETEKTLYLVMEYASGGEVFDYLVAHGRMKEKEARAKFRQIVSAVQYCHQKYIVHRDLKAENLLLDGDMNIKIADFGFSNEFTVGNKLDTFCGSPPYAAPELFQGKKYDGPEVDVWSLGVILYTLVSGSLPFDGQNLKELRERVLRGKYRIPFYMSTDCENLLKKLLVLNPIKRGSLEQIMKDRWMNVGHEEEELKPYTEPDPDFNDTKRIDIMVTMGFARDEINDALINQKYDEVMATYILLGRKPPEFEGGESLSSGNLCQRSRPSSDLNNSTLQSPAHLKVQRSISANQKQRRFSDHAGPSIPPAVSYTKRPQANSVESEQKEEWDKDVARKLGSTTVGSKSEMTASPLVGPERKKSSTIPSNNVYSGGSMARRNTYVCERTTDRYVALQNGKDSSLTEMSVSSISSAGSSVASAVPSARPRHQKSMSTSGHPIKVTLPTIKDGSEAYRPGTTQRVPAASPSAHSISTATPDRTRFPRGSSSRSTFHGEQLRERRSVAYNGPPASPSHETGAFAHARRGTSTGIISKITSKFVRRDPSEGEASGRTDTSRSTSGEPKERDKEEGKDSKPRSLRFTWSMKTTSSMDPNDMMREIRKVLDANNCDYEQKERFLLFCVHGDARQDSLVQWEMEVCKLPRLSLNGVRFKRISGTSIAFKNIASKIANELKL
Experimental: as §1

[10] = molecular target: T3, PEK (Homo sapiens, UniProt Q9NZJ5)
T3 construct: gene EIF2AK3
Experimental: as §1

[11] = molecular target: PIK3CA (Homo sapiens, UniProt P42336)
Experimental: as §1

[12] = molecular target: T4, QIK (Homo sapiens, UniProt Q9H0K1)
T4 construct: gene SIK2
Experimental: as §1

[13] = molecular target: T5, RSK1 (Homo sapiens, UniProt Q15418)
T5 construct: gene RPS6KA1
T5 sequence (Q15418 whole entry): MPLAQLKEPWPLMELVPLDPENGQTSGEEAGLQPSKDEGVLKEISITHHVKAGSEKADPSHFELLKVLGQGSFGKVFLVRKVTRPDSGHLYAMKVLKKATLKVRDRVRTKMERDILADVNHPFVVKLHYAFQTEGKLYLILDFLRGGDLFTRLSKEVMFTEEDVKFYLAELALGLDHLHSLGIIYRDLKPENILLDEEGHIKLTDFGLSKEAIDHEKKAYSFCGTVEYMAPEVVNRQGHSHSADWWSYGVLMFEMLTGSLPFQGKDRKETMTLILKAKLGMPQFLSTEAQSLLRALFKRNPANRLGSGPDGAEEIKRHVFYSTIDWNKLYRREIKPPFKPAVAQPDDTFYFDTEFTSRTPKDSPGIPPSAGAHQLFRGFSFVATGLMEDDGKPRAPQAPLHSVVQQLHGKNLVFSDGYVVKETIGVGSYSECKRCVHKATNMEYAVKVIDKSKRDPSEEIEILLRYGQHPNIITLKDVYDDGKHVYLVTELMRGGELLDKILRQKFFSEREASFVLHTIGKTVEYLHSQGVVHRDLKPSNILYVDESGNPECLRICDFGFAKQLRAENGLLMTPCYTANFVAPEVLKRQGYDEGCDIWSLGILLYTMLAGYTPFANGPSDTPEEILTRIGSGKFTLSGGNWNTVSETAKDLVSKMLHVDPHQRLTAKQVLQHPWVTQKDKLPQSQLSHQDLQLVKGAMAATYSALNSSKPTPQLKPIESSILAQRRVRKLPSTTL
Experimental: as §1

[14] = molecular target: T6, TIE2 (Homo sapiens, UniProt Q02763)
T6 construct: gene TEK
Experimental: as §1

Nc1cn2cc(-c3cnc4c(c3)N(C(=O)OC3CCCCC3)CCO4)ccc2n1 [Zharp1-163]
inhibition at 1 µM ([1]; replicate Data1): -1.95%
inhibition at 1 µM ([1]; replicate Data2): 6.27%
inhibition at 1 µM ([2]; replicate Data1): 16.8%
inhibition at 1 µM ([2]; replicate Data2): 10.4%
inhibition at 1 µM ([3]; replicate Data1): 2.7%
inhibition at 1 µM ([3]; replicate Data2): -0.57%
inhibition at 1 µM ([4]; replicate Data1): -8.23%
inhibition at 1 µM ([4]; replicate Data2): -5.7%
inhibition at 1 µM ([5]; replicate Data1): 1.3%
inhibition at 1 µM ([5]; replicate Data2): -3.6%
inhibition at 1 µM ([6]; replicate Data1): 19.4%
inhibition at 1 µM ([6]; replicate Data2): 18.5%
inhibition at 1 µM ([7]; replicate Data1): 6.2%
inhibition at 1 µM ([7]; replicate Data2): 5.09%
inhibition at 1 µM ([8]; replicate Data1): -2.59%
inhibition at 1 µM ([8]; replicate Data2): -4.74%
inhibition at 1 µM ([9]; replicate Data1): -11.5%
inhibition at 1 µM ([9]; replicate Data2): 4.11%
inhibition at 1 µM ([10]; replicate Data1): 1.73%
inhibition at 1 µM ([10]; replicate Data2): 19.4%
inhibition at 1 µM ([11]; replicate Data1): 37.1%
inhibition at 1 µM ([11]; replicate Data2): 35.8%
inhibition at 1 µM ([12]; replicate Data1): 9.18%
inhibition at 1 µM ([12]; replicate Data2): 2.94%
inhibition at 1 µM ([13]; replicate Data1): 6.09%
inhibition at 1 µM ([13]; replicate Data2): 5.81%
inhibition at 1 µM ([14]; replicate Data1): 11.9%
inhibition at 1 µM ([14]; replicate Data2): 26.5%
